Patent US20160002273A1, “THIENO[3,2-D]PYRIMIDINE-6-CARBOXAMIDES AND ANALOGUES AS SIRTUIN MODULATORS” (GLAXOSMITHKLINE LLC, priority 2013, published 2016)
Like-named read-outs stand apart in the source and are kept apart here.

Assays:
SIRT2 = target: T1, SIRT2 (Homo sapiens, UniProt Q8IXJ6); experiment: SIRT2 deacetylation of Trp 5-mer peptide, OAADPr mass spec assay; type: biochemical; design: His-SIRT2(1-389)
T1 sequence (Q8IXJ6 1-389): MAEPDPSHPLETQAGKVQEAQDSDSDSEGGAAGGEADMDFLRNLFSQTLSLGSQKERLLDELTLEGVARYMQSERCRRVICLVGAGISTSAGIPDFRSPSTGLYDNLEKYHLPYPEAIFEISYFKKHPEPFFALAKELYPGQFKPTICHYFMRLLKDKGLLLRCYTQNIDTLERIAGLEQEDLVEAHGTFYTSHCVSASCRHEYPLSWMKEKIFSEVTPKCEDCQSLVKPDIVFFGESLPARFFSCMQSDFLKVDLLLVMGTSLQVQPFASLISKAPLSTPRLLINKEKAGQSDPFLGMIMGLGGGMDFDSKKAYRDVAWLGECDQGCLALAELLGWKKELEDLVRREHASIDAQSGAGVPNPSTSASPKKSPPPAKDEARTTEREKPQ

SIRT1 = target: T2, SIRT1 (Homo sapiens, UniProt Q96EB6); experiment: SIRT1 deacetylation of Trp 5-mer peptide, OAADPr mass spec assay; settings: for SIRT1 inhibition, in words: at the concentrations tested
T2 sequence (Q96EB6 1-747): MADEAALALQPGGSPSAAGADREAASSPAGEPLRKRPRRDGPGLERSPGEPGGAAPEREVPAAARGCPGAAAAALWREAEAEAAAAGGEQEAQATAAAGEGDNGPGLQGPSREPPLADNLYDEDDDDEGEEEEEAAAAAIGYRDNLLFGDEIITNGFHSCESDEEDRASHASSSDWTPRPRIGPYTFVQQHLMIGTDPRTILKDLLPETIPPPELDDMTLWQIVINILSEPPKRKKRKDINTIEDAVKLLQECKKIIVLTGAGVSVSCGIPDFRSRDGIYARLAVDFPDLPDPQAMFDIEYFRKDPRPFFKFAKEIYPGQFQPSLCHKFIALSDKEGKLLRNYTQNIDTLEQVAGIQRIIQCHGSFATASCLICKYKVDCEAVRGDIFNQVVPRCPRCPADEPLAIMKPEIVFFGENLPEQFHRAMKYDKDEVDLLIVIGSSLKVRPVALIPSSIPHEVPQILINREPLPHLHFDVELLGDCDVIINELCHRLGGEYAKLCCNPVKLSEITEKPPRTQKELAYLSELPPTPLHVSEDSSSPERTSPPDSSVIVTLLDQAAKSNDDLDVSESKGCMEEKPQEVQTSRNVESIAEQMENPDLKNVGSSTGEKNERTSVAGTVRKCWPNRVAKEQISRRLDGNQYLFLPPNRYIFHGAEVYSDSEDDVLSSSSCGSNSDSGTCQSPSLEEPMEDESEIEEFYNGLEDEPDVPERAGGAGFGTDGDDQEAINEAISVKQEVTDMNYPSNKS
Procedure: (§1) All assays were performed at room temperature in reaction buffer (50 mM HEPES, pH 7.5, 150 mM NaCl, 1 mM DTT, 0.05% BSA). […] To prepare the assays for analysis, 20 μL of reaction volume was mixed in 80 μL of 50:50 acetonitrile:methanol mixture. […] Peak data was integrated using RapidFire Integrator software (Agilent, Santa Clara, Calif.).

SIRT3 = target: T3, SIRT3 (Homo sapiens, UniProt Q9NTG7); experiment: SIRT3 deacetylation of Trp 5-mer peptide, OAADPr mass spec assay; settings: for SIRT3 inhibition, in words: at the concentrations tested
T3 sequence (Q9NTG7 102-399): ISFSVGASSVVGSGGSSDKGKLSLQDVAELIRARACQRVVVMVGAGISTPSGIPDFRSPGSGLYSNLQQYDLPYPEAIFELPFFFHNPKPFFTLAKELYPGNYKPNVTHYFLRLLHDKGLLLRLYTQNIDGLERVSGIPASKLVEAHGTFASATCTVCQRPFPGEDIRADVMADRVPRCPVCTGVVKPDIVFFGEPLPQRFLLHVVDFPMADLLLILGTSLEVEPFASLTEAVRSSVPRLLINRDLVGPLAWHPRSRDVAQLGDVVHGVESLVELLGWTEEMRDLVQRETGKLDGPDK
Procedure: as §1

[1] = Trp 5-mer peptide and NAD at KM, mean of at least three determinations, read-out: IC50 (μM) SIRT2
[2] = Trp 5-mer peptide, class symbols, read-out: Trp SIRT2_IC50
[3] = IC50 (μM) SIRT1, Trp 5-mer peptide and NAD at KM, mean of at least three determinations
[4] = Trp SIRT1_IC50, Trp 5-mer peptide, class symbols
[5] = IC50 (μM) SIRT3, Trp 5-mer peptide and NAD at KM, mean of at least three determinations
[6] = Trp SIRT3_IC50, Trp 5-mer peptide, class symbols

| SMILES | IC50 (SIRT2; [1]) | IC50 (SIRT2; [2]) | IC50 (SIRT1; [3]) | IC50 (SIRT1; [4]) | SIRT1 inhibition, in words (SIRT1) | IC50 (SIRT3; [5]) | IC50 (SIRT3; [6]) | SIRT3 inhibition, in words (SIRT3) | SIRT2 inhibition, in words (SIRT2; at the concentrations tested) |
| --- | --- | --- | --- | --- | --- | --- | --- | --- | --- |
| CNC(=O)c1cc2ncnc(N3CCC(CCNC(=O)C(C)(C)C)CC3)c2s1 [Compound 41, N-Methyl-4-(4-(2-pivalamidoethyl)piperidin-1-yl)thieno[3,2-d]pyrimidine-6-carboxamide] | 10 µM | 1 to 10 µM | > 50 µM | > 10 µM | no measurable | > 50 µM | > 10 µM | no measurable | – |
| CC(C)(C)C(=O)NCCC1CCN(c2ncnc3ccsc23)CC1 [Compound 42, N-(2-(1-(thieno[3,2-d]pyrimidin-4-yl)piperidin-4-yl)ethyl)pivalamide] | > 50 µM | > 10 µM | > 50 µM | > 10 µM | no measurable | > 50 µM | > 10 µM | no measurable | no measurable |
| NC(=O)c1cc2ncnc(N3CCC(O)(CN4CCCC4)CC3)c2s1 [Compound 58] | – | 1 to 10 µM | – | 1 to 10 µM | – | – | 1 to 10 µM | – | – |
| NC(=O)c1cc2ncnc(N3CCN(CCNC(=O)C4CCCC4)CC3)c2s1 [Compound 63] | – | < 1 µM | – | < 1 µM | – | – | < 1 µM | – | – |
| COC(=O)c1ccc(C(=O)NCCC2CCN(c3ncnc4cc(C(N)=O)sc34)CC2)s1 [Compound 67] | – | < 1 µM | – | < 1 µM | – | – | < 1 µM | – | – |
| CC(C)(C)OC(=O)NCCN1CCN(c2ncnc3cc(C(N)=O)oc23)CC1 [Compound 86] | – | < 1 µM | – | < 1 µM | – | – | 1 to 10 µM | – | – |
| NC(=O)c1cc2ncnc(N3CCC(CCN4CCCC4)CC3)c2o1 [Compound 87] | – | < 1 µM | – | 1 to 10 µM | – | – | < 1 µM | – | – |
| NC(=O)c1cc2ncnc(N3CCC(CCNC(=O)C4CCCC4)CC3)c2o1 [Compound 88] | – | < 1 µM | – | < 1 µM | – | – | < 1 µM | – | – |
| CS(=O)(=O)NCCN1CCN(c2ncnc3cc(C(N)=O)oc23)CC1 [Compound 89] | – | < 1 µM | – | 1 to 10 µM | – | – | < 1 µM | – | – |
| NC(=O)c1cc2ncnc(N3CCC(CN4CCCC4)CC3)c2o1 [Compound 90] | – | 1 to 10 µM | – | 1 to 10 µM | – | – | < 1 µM | – | – |
| COCCC1CCN(c2ncnc3cc(C(N)=O)oc23)CC1 [Compound 91] | – | 1 to 10 µM | – | 1 to 10 µM | – | – | 1 to 10 µM | – | – |
| NC(=O)c1cc2ncnc(N3CCN(CCN4CCCC4)CC3)c2o1 [Compound 92] | – | < 1 µM | – | 1 to 10 µM | – | – | < 1 µM | – | – |
| NC(=O)c1cc2ncnc(N3CCC(CCO)CC3)c2o1 [Compound 93] | – | < 1 µM | – | 1 to 10 µM | – | – | < 1 µM | – | – |
| CC(C)(C)OC(=O)N1CCC(C2CCN(c3ncnc4cc(C(N)=O)oc34)CC2)CC1 [Compound 94, tert-butyl 1′-(6-carbamoylfuro[3,2-d]pyrimidin-4-yl)-[4,4′-bipiperidine]-1-carboxylate] | – | 1 to 10 µM | – | 1 to 10 µM | – | – | > 10 µM | – | – |
| NCCN1CCN(c2ncnc3cc(C(N)=O)oc23)CC1 [Compound 96] | – | 1 to 10 µM | – | > 10 µM | – | – | 1 to 10 µM | – | – |
| CC(C)(C)C(=O)NCCN1CCN(c2ncnc3cc(C(N)=O)oc23)CC1 [Compound 97] | – | < 1 µM | – | < 1 µM | – | – | < 1 µM | – | – |
| NC(=O)c1cc2ncnc(N3CCN(CCNC(=O)C4CCCC4)CC3)c2o1 [Compound 98] | – | < 1 µM | – | < 1 µM | – | – | < 1 µM | – | – |
| CS(=O)(=O)NCCC1CCN(c2ncnc3cc(C(N)=O)oc23)CC1 [Compound 99] | – | < 1 µM | – | < 1 µM | – | – | < 1 µM | – | – |

Results, then the compound that gave them:

| IC50 (SIRT2; [1]) | IC50 (SIRT2; [2]) | IC50 (SIRT1; [3]) | IC50 (SIRT1; [4]) | SIRT1 inhibition, in words (SIRT1) | IC50 (SIRT3; [5]) | IC50 (SIRT3; [6]) | SIRT3 inhibition, in words (SIRT3) | SIRT2 inhibition, in words (SIRT2; at the concentrations tested) | SMILES |
| --- | --- | --- | --- | --- | --- | --- | --- | --- | --- |
| – | < 1 µM | – | 1 to 10 µM | – | – | < 1 µM | – | – | CN(C)CC1CCN(c2ncnc3cc(C(N)=O)sc23)CC1 [Compound 43, 4-(4-((dimethylamino)methyl)piperidin-1-yl)thieno[3,2-d]pyrimidine-6-carboxamide] |
| – | < 1 µM | – | 1 to 10 µM | – | – | 1 to 10 µM | – | – | NC(=O)c1cc2ncnc(N3CCN(CCO)CC3)c2s1 [Compound 44, 4-(4-(2-hydroxyethyl)piperazin-1-yl)thieno[3,2-d]pyrimidine-6-carboxamide] |
| – | < 1 µM | – | 1 to 10 µM | – | – | 1 to 10 µM | – | – | COCCN1CCN(c2ncnc3cc(C(N)=O)sc23)CC1 [Compound 45] |
| – | < 1 µM | – | 1 to 10 µM | – | – | < 1 µM | – | – | CN(C)CCC1CCN(c2ncnc3cc(C(N)=O)sc23)CC1 [Compound 46] |
| – | < 1 µM | – | < 1 µM | – | – | < 1 µM | – | – | NC(=O)c1cc2ncnc(N3CCC(CCN4CCCC4=O)CC3)c2s1 [Compound 47] |
| – | 1 to 10 µM | – | 1 to 10 µM | – | – | 1 to 10 µM | – | – | CNC(=O)CC1CCN(c2ncnc3cc(C(N)=O)sc23)CC1 [Compound 48] |
| – | < 1 µM | – | < 1 µM | – | – | < 1 µM | – | – | COCCC1CCN(c2ncnc3cc(C(N)=O)sc23)CC1 [Compound 49] |
| – | < 1 µM | – | < 1 µM | – | – | < 1 µM | – | – | NC(=O)c1cc2ncnc(N3CCC(CCO)CC3)c2s1 [Compound 50] |
| – | < 1 µM | – | 1 to 10 µM | – | – | < 1 µM | – | – | NC(=O)c1cc2ncnc(N3CCC(CO)CC3)c2s1 [Compound 51] |
| – | < 1 µM | – | < 1 µM | – | – | < 1 µM | – | – | NC(=O)c1cc2ncnc(N3CCC(CCn4ccnc4)CC3)c2s1 [Compound 52] |
| – | < 1 µM | – | < 1 µM | – | – | < 1 µM | – | – | NC(=O)c1cc2ncnc(N3CCC(CCNC(=O)C4CCCC4)CC3)c2s1 [Compound 53] |
| – | 1 to 10 µM | – | > 10 µM | – | – | 1 to 10 µM | – | – | CNCC1CCN(c2ncnc3cc(C(N)=O)sc23)CC1 [Compound 55, 4-(4-((methylamino)methyl)piperidin-1-yl)thieno[3,2-d]pyrimidine-6-carboxamide] |
| – | < 1 µM | – | < 1 µM | – | – | < 1 µM | – | – | NC(=O)c1cc2ncnc(N3CCC(C4CCNCC4)CC3)c2s1 [Compound 56] |
| – | > 10 µM | – | > 10 µM | – | – | > 10 µM | – | – | NCC1CCN(c2ncnc3cc(C(N)=O)sc23)CC1 [Compound 59, 4-(4-(aminomethyl)piperidin-1-yl)thieno[3,2-d]pyrimidine-6-carboxamide] |
| – | < 1 µM | – | < 1 µM | – | – | < 1 µM | – | – | CC(C)(C)OC(=O)NCCCC1CCN(c2ncnc3cc(C(N)=O)sc23)CC1 [Compound 76, tert-butyl (3-(1-(6-carbamoylthieno[3,2-d]pyrimidin-4-yl)piperidin-4-yl)propyl)carbamate] |
| – | < 1 µM | – | < 1 µM | – | – | < 1 µM | – | – | NCCCC1CCN(c2ncnc3cc(C(N)=O)sc23)CC1 [Compound 77, 4-(4-(3-aminopropyl)piperidin-1-yl)thieno[3,2-d]pyrimidine-6-carboxamide 2,2,2-trifluoroacetate] |
| – | 1 to 10 µM | – | 1 to 10 µM | – | – | 1 to 10 µM | – | – | CC1(C)COC(C2CCN(c3ncnc4cc(C(N)=O)sc34)CC2)OC1 [Compound 78, 4-(4-(5,5-dimethyl-1,3-dioxan-2-yl)piperidin-1-yl)thieno[3,2-d]pyrimidine-6-carboxamide] |
| – | < 1 µM | – | 1 to 10 µM | – | – | 1 to 10 µM | – | – | NCCC1CCN(c2ncnc3cc(C(N)=O)oc23)CC1 [Compound 95, 4-(4-(2-aminoethyl)piperidin-1-yl)furo[3,2-d]pyrimidine-6-carboxamide] |
